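Exposure lasted 48 hours, with cells grown in 96-well plates and compounds tested at five concentrations. At the GI50, growth is halved.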 Active and inactive are the calls of the source. Cut-off read from the data, not from the text of the source: active = GI50 up to about 1.1 µM and inactive = higher.

Some test systems named below: OVCAR-8; KM12; COLO 205; DU-145; SK-MEL-28; PC-3; NCI-H522; A549; SR; UO-31; SW-620; 786-0; NCI-H226; RXF 393; HOP-92; M14; HCC 2998; OVCAR-4; K562.
Common to all, as to assay: inhibition of tumour cell growth, NCI panel, 48 h

As to `CCCCCCOc1ccc(C(=O)NOCc2ccccc2)cc1`, the GI50 in the assay on OVCAR-8, in the assay on KM12, in the assay with COLO 205, with DU-145, in the assay on SK-MEL-28 and with PC-3 was > 100 µM (inactive) throughout. The GI50 in the assay with NCI-H522 is > 100 µM (inactive); in the assay with A549, > 100 µM (inactive); with SR, 18.5 µM (inactive); in the assay on UO-31 it was > 100 µM (inactive); in the assay on SW-620, > 100 µM (inactive); with 786-0, > 100 µM (inactive). For the same compound, the GI50 with NCI-H226, in the assay on RXF 393, with HOP-92, with M14, in the assay on HCC 2998 and in the assay on OVCAR-4 was > 100 µM (inactive) in each case. In addition, the GI50 with K562 was 35.6 µM (inactive).
For `CCN1/C(=C/C#C/C(C)=C\c2sc3ccccc3[n+]2CC)Sc2ccccc21`, the GI50 with OVCAR-8 was 2.07 µM (inactive); in the assay with KM12, 1.28 µM (inactive); in the assay with COLO 205, 1.27 µM (inactive); in the assay with DU-145, 3.42 µM (inactive); with SK-MEL-28, 3.35 µM (inactive); in the assay on PC-3, 1.82 µM (inactive). Further, the GI50 with NCI-H522 is 0.377 µM (active); in the assay on A549 it was 2.92 µM (inactive); in the assay with SR, 0.811 µM (active); in the assay on UO-31, 2.03 µM (inactive); with SW-620, 0.593 µM (active); in the assay with 786-0 it was 3.13 µM (inactive). For the same compound, the GI50 with NCI-H226 was 0.631 µM (active); with RXF 393, 2.14 µM (inactive); in the assay on HOP-92 it was 2 µM (inactive); in the assay on M14, 1.93 µM (inactive); in the assay with HCC 2998, 3.01 µM (inactive); in the assay with OVCAR-4, 7.33 µM (inactive). For the same compound, the GI50 in the assay on K562 is 0.269 µM (active).
Consider `CCCCC1C(=O)N(c2ccc(S(=O)(=O)Nc3ccccn3)cc2)N(c2ccc(O)c(C(=O)O)c2)C1=O` (stereo not given), for which the GI50 in the assay on OVCAR-8, in the assay with KM12, in the assay with COLO 205, in the assay on DU-145, in the assay on SK-MEL-28 and with PC-3 was > 100 µM (inactive) each time. Also, the GI50 in the assay on NCI-H522, in the assay with A549, with SR, with UO-31, in the assay on SW-620 and with 786-0 was > 100 µM (inactive) each time. Moreover, the GI50 in the assay on NCI-H226, in the assay on RXF 393, in the assay with HOP-92, with M14, in the assay on HCC 2998 and with OVCAR-4 was > 100 µM (inactive) in each case. The GI50 with K562 is > 100 µM (inactive).
Regarding `O=c1c2ncn(CCCl)c2n(-c2ccccc2)c(=S)n1-c1ccccc1`, the GI50 with OVCAR-8, in the assay on KM12, in the assay on COLO 205, in the assay on DU-145, in the assay with SK-MEL-28 and in the assay on PC-3 was > 100 µM (inactive) throughout. In addition, the GI50 was > 100 µM (inactive) in the assay with NCI-H522; > 100 µM (inactive) with A549; > 100 µM (inactive) in the assay on SR; 99.5 µM (inactive) with UO-31; > 100 µM (inactive) with SW-620; > 100 µM (inactive) with 786-0. Moreover, the GI50 in the assay on NCI-H226, in the assay on RXF 393, in the assay with HOP-92, in the assay on M14, in the assay on HCC 2998 and in the assay with OVCAR-4 was > 100 µM (inactive) throughout. Further, the GI50 in the assay on K562 was 86.9 µM (inactive).
As for `C#CCOCC12C=CC(O1)C1COC(=O)C12` (stereo not given), the GI50 in the assay with OVCAR-8, in the assay with KM12, in the assay with COLO 205, with DU-145, with SK-MEL-28 and in the assay with PC-3 was > 100 µM (inactive) each time. Besides, the GI50 in the assay with NCI-H522, in the assay with A549, in the assay on SR, with UO-31, in the assay on SW-620 and in the assay on 786-0 was > 100 µM (inactive) throughout. Moreover, the GI50 in the assay with NCI-H226 is > 100 µM (inactive); with RXF 393, > 100 µM (inactive); in the assay on HOP-92, 7.14 µM (inactive); in the assay on M14, > 100 µM (inactive); in the assay with HCC 2998, > 100 µM (inactive); in the assay on OVCAR-4, > 100 µM (inactive). For the same compound, the GI50 in the assay on K562 is > 100 µM (inactive).
As for `CCOC(=O)c1csc(-c2cn(C)c3c2C(=O)C(OC)=CC3=O)n1`, the GI50 was 45.2 µM (inactive) in the assay with OVCAR-8; 20 µM (inactive) in the assay on KM12; 26.9 µM (inactive) with COLO 205; 6.05 µM (inactive) in the assay with DU-145; 32.6 µM (inactive) in the assay with SK-MEL-28; 21.4 µM (inactive) with PC-3. For the same compound, the GI50 in the assay on NCI-H522 was 36.6 µM (inactive); in the assay with A549, 17.8 µM (inactive); in the assay with SR, > 53.5 µM (inactive); with UO-31 it was 44.4 µM (inactive); with SW-620 it was 55.2 µM (inactive); in the assay on 786-0, > 100 µM (inactive). The GI50 in the assay on NCI-H226 is > 83 µM (inactive); in the assay with RXF 393, 23.6 µM (inactive); with HOP-92 it was 40.5 µM (inactive); with M14 it was 14 µM (inactive); with HCC 2998, 23.8 µM (inactive); in the assay with OVCAR-4 it was 42.8 µM (inactive). Besides, the GI50 in the assay with K562 was 21.6 µM (inactive).
For `COC(=O)c1ccccc1C1CN=NC12Cc1cc(C)ccc1C2=O` (stereo not given), the GI50 in the assay on OVCAR-8 is > 100 µM (inactive); with KM12, 92.9 µM (inactive); with COLO 205, > 100 µM (inactive); with DU-145, > 100 µM (inactive); with SK-MEL-28, > 100 µM (inactive); in the assay on PC-3 it was 94.4 µM (inactive). Further, the GI50 is 63.8 µM (inactive) with NCI-H522; > 100 µM (inactive) with A549; > 100 µM (inactive) in the assay with SR; 52.4 µM (inactive) with UO-31; > 100 µM (inactive) in the assay on SW-620; > 100 µM (inactive) in the assay on 786-0. Also, the GI50 in the assay on NCI-H226 was > 100 µM (inactive); in the assay with RXF 393, > 100 µM (inactive); with HOP-92, 43.2 µM (inactive); in the assay on M14 it was > 100 µM (inactive); in the assay on HCC 2998, > 100 µM (inactive); with OVCAR-4, > 100 µM (inactive). In addition, the GI50 with K562 is 86.9 µM (inactive).
Take `O=C1CCCC2=C1CC1=C(CCCC1=O)N2c1ccc(-c2ccccc2)cc1`: the GI50 in the assay with OVCAR-8, with KM12, with COLO 205, in the assay with DU-145, in the assay with SK-MEL-28 and in the assay with PC-3 was > 100 µM (inactive) each time. Moreover, the GI50 in the assay on NCI-H522 was > 100 µM (inactive); in the assay with A549, > 100 µM (inactive); with SR it was > 100 µM (inactive); in the assay with UO-31 it was > 100 µM (inactive); in the assay on SW-620 it was > 100 µM (inactive); in the assay on 786-0, > 69.7 µM (inactive). In addition, the GI50 is > 100 µM (inactive) with NCI-H226; > 24.6 µM (inactive) in the assay on RXF 393; > 75.3 µM (inactive) in the assay on HOP-92; > 100 µM (inactive) in the assay with M14; > 100 µM (inactive) in the assay on HCC 2998; > 100 µM (inactive) in the assay with OVCAR-4. In the assay on K562, the GI50 is > 100 µM (inactive).
Consider `C=CCNC1=C2C[C@@H](C)C[C@@H](OC)C(OC(=O)CCCN(C)C)[C@H](C)/C=C(\C)[C@@H](OC(N)=O)[C@H](OC)/C=C\C=C(/C)C(=O)NC(=CC1=O)C2=O` (stereo not given in full), for which the GI50 is 4.1 µM (inactive) in the assay on OVCAR-8; 4.07 µM (inactive) in the assay with KM12; 2.82 µM (inactive) in the assay on COLO 205; 5.02 µM (inactive) in the assay on DU-145; 13.7 µM (inactive) with SK-MEL-28; 4.98 µM (inactive) with PC-3. The GI50 was 8.07 µM (inactive) in the assay with NCI-H522; 3.85 µM (inactive) in the assay with A549; 2.59 µM (inactive) in the assay with SR; 13.6 µM (inactive) in the assay on UO-31; 4.48 µM (inactive) with SW-620; 12.4 µM (inactive) with 786-0. For the same compound, the GI50 in the assay on NCI-H226 was 14.6 µM (inactive); in the assay on RXF 393 it was 3.98 µM (inactive); in the assay on HOP-92, 17.7 µM (inactive); in the assay on M14 it was 8.53 µM (inactive); in the assay with HCC 2998 it was 4.6 µM (inactive); in the assay on OVCAR-4, 9.14 µM (inactive). In the assay with K562, the GI50 is 4.06 µM (inactive).
For `CC(=O)c1sc2c(c1OC(=O)c1ccccc1)c(=O)n(-c1ccccc1)c(=S)n2-c1ccccc1`, the GI50 in the assay on OVCAR-8 was 4.38 µM (inactive); in the assay on KM12, 33.1 µM (inactive); with COLO 205, 13.6 µM (inactive); in the assay on DU-145, 28.1 µM (inactive); with SK-MEL-28, 3.89 µM (inactive); in the assay on PC-3, 2.9 µM (inactive). In addition, the GI50 in the assay on NCI-H522 was 28.6 µM (inactive); in the assay with A549 it was 35.3 µM (inactive); in the assay with SR, 3.95 µM (inactive); in the assay on UO-31 it was 4.09 µM (inactive); in the assay on SW-620 it was 15.2 µM (inactive); in the assay with 786-0, 2.9 µM (inactive). Also, the GI50 in the assay with NCI-H226 was 2.62 µM (inactive); with RXF 393 it was 2.86 µM (inactive); in the assay with HOP-92, 1.69 µM (inactive); with M14 it was 3.4 µM (inactive); in the assay on HCC 2998, 17.3 µM (inactive); with OVCAR-4 it was 20.4 µM (inactive). The GI50 in the assay on K562 is 17.4 µM (inactive).

The values are drawn from ChEMBL document CHEMBL1201862, “PubChem BioAssay data set” (2004).
